Data published in article PMC8565742 (PLoS Neglected Tropical Diseases, 2021).
Where two headings read alike, the source gives them in different places.

Tests used:
[1] = target: T1, Sm.TRPMPZQ (Schistosoma mansoni, UniProt A0A5K4F0X5); assay: Single channel recording, inside-out patch, HEK293 stably expressing Sm.TRPMPZQ; assay type: biochemical; settings: for mean slope single-channel conductance: agonist 10 μM, Ca2+-free, inside-out, mean ± SD
Method: For electrophysiological analysis, a HEK293 cell line stably expressing Sm.TRPMPZQ [7] was generated using the Flp-In T-REx system (K650001, Thermofisher Scientific, Carlsbad, CA). Flp-In T-REx HEK293 cells were cultured in Dulbecco’s modified Eagle’s medium supplemented with 10% fetal bovine serum, penicillin (100 units/ml), streptomycin (100 μg/ml), L-glutamine (290 μg/ml), blasticidin (10 μg/ml), and hydromycin B (100 μg/ml). HEK293 cells were plated onto glass coverslips and Sm.TRPMPZQ expression induced by addition of tetracycline (2 μg/ml) to the media 24–48 hours before recording. Prior to recording, coverslips were secured within a recording chamber of an Olympus BX51WI upright microscope. Cells were bathed in a solution containing 145 mM KCl, 10 mM HEPES, 1 mM EGTA (pH 7.2, 310–315 mOsm/kg with sucrose). The pipette solution contained 140 mM LiCl, 10 mM HEPES, 1 mM EGTA (pH 7.4, 280–285 mOsm/kg with sucrose). Patch pipettes were made of borosilicate glass (BF150-110-10, Sutter Instrument, Novato, CA) pulled on a vertical puller (Narishige, Amityville, NY, Model PC-10) with resistances 8–10 MΩ. […] Signals were filtered with an 8-pole Bessel low pass filter at 1 kHz, and sampled at 20 kHz. Open probability (Popen) was assessed in single channel search mode using Clampfit 10 software. All recordings were done at room temperature. Data represent mean±standard error for ≥3 independent experiments.

[2] = target: T1, Sm.TRPMPZQ; assay: cell-based
Method: HEK cells were transfected with cDNA (400μg/ml DNA) encoding Sm.TRPMPZQ using a Maxcyte STX electroporation system and incubated overnight at 37°C. This system is uniquely capabable of large scale transfections providing one batch of cells ready for large scale HTS [30]. Briefly, the HEK cells were resuspended at 10^8/ml in Maxcyte electroporation buffer. Plasmid DNA was added to the cells in buffer to achieve a concentration of 400 μg/ml from a stock of 5mg/ml (in TE buffer). This mixture was loaded into the appropriate cassette, inserted into the machine, and cells electroporated. Cells were then frozen to provide a single supply of transfected cells for all subsequent assays. On the day of the assays, cells were thawed in a 37°C waterbath, and resuspended in DMEM + 10% FBS and counted. The cells were pelleted by centrifugation at 170xg for 5 minutes. The media was aspirated, and the remaining pellet was resuspended in 1x HBSS with 20 mM HEPES and 1% DMSO to achieve 1.33x10^6cells/ml. This cell suspension was then dispensed at 3 μl/well to the 1536 well plates (Greiner Bio One part 789072) at a density of 4,000 cells/well. Measurements of fluorescence intensity (λex = 470 nm, λem = 535 nm) were made using a FLIPR (Molecular Devices FLIPR Tetra). A read of basal fluorescence values was made (5s) prior to addition of compounds or controls (30 nl). In both ‘agonist’ and ‘antagonist mode’, the total assay volume was 6μl (1% DMSO). […] Ligand performance was categorized using an algorithm based on the activity of the entire dataset to define a ‘hit-cutoff’ parameter for both agonist-mode and antagonist-mode screening. […] Titration assays were executed using the same reagents, protocols and detection systems, done as 10-point concentration-response curves, performed in triplicate. Counter-screening was performed using untransfected HEK293 cells for comparison with results testing the same compounds effect on cells expressing Sm.TRPMPZQ, with ATP used as the positive control. For each compound, activity was plotted against compound concentration and data were fitted with a sigmoidal function. […] ChemAxon (https://www.chemaxon.com) academic licensing was provided for the use of Instant JChem (ver. 15.10.12.0) to perform compound mining of the libraries utilized in this effort.

[3] = test system: untransfected HEK293 cells; assay: Counterscreen, agonist mode, Ca2+ signal in untransfected HEK cells; assay type: cell-based; settings: for EC50: Homo sapiens, HEK293, unit inferred, read-out: HEK AG Final EC50; for EC50 / HEK AG Averaged Max % Response: counterscreen titration
Method: HEK cells were transfected with cDNA (400μg/ml DNA) encoding Sm.TRPMPZQ using a Maxcyte STX electroporation system and incubated overnight at 37°C. This system is uniquely capabable of large scale transfections providing one batch of cells ready for large scale HTS [30]. Briefly, the HEK cells were resuspended at 10^8/ml in Maxcyte electroporation buffer. Plasmid DNA was added to the cells in buffer to achieve a concentration of 400 μg/ml from a stock of 5mg/ml (in TE buffer). This mixture was loaded into the appropriate cassette, inserted into the machine, and cells electroporated. Cells were then frozen to provide a single supply of transfected cells for all subsequent assays. On the day of the assays, cells were thawed in a 37°C waterbath, and resuspended in DMEM + 10% FBS and counted. The cells were pelleted by centrifugation at 170xg for 5 minutes. The media was aspirated, and the remaining pellet was resuspended in 1x HBSS with 20 mM HEPES and 1% DMSO to achieve 1.33x10^6cells/ml. This cell suspension was then dispensed at 3 μl/well to the 1536 well plates (Greiner Bio One part 789072) at a density of 4,000 cells/well. Measurements of fluorescence intensity (λex = 470 nm, λem = 535 nm) were made using a FLIPR (Molecular Devices FLIPR Tetra). A read of basal fluorescence values was made (5s) prior to addition of compounds or controls (30 nl). In both ‘agonist’ and ‘antagonist mode’, the total assay volume was 6μl (1% DMSO). […] Ligand performance was categorized using an algorithm based on the activity of the entire dataset to define a ‘hit-cutoff’ parameter for both agonist-mode and antagonist-mode screening. Any compound with greater percent activation than this cutoff was assigned as ‘active’ prior to titration and counter-screening. Titration assays were executed using the same reagents, protocols and detection systems, done as 10-point concentration-response curves, performed in triplicate. Counter-screening was performed using untransfected HEK293 cells for comparison with results testing the same compounds effect on cells expressing Sm.TRPMPZQ, with ATP used as the positive control. For each compound, activity was plotted against compound concentration and data were fitted with a sigmoidal function. In order to be considered a hit at this stage a compound must achieve a EC50<5 μM for agonists and IC50 <5 μM for antagonists. All compounds selected for titration were subjected to LC-MS analysis to confirm mass and sample purity. ChemAxon (https://www.chemaxon.com) academic licensing was provided for the use of Instant JChem (ver. 15.10.12.0) to perform compound mining of the libraries utilized in this effort.

[4] = S2 Table, titration, listed as SR-01000003100-19

T1 sequence (A0A5K4F0X5 entry or part of it): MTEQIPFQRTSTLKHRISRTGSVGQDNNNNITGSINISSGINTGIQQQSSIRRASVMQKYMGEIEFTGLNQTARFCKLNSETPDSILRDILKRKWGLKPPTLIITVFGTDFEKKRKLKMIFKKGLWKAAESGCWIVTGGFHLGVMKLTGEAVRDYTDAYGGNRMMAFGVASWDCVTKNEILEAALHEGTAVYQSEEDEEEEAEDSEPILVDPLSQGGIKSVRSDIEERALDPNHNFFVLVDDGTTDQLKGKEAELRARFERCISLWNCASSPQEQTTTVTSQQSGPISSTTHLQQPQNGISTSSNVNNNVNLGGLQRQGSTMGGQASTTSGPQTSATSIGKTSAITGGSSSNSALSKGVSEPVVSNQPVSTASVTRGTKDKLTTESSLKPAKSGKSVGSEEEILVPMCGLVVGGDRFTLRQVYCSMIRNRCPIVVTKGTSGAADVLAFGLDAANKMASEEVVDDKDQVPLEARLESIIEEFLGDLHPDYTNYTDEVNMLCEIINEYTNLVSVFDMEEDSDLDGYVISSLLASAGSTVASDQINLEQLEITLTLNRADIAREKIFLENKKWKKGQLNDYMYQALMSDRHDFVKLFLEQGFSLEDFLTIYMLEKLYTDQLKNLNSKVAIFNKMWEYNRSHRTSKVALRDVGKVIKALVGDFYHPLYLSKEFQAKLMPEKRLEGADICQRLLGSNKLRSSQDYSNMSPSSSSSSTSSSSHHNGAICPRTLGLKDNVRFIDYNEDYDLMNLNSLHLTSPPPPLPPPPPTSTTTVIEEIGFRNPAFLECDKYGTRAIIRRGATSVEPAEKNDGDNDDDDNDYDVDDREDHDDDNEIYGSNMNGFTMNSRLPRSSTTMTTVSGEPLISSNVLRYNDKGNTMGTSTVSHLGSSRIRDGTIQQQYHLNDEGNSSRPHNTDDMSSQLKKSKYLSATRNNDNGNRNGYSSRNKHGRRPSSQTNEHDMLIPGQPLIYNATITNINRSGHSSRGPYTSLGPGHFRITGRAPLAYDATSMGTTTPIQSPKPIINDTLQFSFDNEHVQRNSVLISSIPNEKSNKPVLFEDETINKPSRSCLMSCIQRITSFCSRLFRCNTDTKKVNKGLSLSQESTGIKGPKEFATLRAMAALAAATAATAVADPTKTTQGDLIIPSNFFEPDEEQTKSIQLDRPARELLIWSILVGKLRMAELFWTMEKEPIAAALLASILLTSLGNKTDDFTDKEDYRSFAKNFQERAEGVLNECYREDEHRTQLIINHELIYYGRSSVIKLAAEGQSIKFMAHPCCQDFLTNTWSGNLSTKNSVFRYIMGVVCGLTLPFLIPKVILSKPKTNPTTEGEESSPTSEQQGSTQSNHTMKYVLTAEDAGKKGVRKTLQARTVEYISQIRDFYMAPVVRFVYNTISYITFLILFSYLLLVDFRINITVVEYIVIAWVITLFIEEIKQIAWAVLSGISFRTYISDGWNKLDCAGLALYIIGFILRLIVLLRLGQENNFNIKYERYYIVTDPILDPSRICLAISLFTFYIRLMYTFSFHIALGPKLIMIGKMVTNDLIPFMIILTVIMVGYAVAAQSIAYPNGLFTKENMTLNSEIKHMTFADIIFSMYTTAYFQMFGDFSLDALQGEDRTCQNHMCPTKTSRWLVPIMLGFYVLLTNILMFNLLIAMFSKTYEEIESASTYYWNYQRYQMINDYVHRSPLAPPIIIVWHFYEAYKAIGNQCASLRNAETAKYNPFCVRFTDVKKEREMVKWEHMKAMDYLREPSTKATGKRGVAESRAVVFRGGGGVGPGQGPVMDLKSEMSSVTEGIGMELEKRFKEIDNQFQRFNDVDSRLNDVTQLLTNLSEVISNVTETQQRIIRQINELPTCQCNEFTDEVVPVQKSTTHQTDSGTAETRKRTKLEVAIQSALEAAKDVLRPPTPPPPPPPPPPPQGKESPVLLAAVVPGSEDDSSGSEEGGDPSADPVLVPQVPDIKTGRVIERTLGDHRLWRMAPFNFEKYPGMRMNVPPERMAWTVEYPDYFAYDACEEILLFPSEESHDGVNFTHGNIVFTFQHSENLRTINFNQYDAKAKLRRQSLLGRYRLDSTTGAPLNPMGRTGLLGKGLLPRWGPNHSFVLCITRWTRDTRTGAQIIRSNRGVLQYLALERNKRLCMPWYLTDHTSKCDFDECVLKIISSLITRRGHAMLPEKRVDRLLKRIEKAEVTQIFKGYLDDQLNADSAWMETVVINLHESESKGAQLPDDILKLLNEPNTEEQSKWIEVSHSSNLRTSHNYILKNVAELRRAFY

COc1ccc(-c2nnc3ccc(-c4cccc(C(C)C)c4)cn23)cc1OC [AG1, 3-(3,4-Dimethoxyphenyl)-6-(3-propan-2-ylphenyl)-[1,2,4]triazolo[4,3-a]pyridine]
mean slope single-channel conductance [1]: 61 ± 4 pS | Emax ([2]; HEK293, S2 Table, titration, read-out: Sm.TRPMPZQ AG Averaged Max % Response): 97.5% | activation at 5 µM ([2]; HEK293, read-out: Bmax, activation in primary screen): 93.9 ± 5.6% | EC50 ([2]; S2 Table, 10-point titration in triplicate, unit inferred, read-out: Sm.TRPMPZQ AG Final EC50): 1.56 µM | Sm.TRPMPZQ AG Hill Slope ([2]; S2 Table, titration): 1.659 | agonist efficacy ([2]; concentration-response curve analysis): full agonist | EC50 ([2]; concentration-response of library sample, Ca2+ flux, read-out: EC50): 1.6 ± 0.3 µM | EC50 ([2]; re-sourced, independently procured sample, read-out: EC50): 9.2 µM | EC50 ([3]; S2 Table): > 12.4 µM | HEK AG Averaged Max % Response ([3]; S2 Table): 8.295% | activity on counter-screening in naïve HEK cells ([3]; concentration-response): no activity

Cc1onc(-c2ccccc2)c1C(=O)N1CCN(C2c3ccccc3-c3ccccc32)CC1 [ANT1, 1-(9H-fluoren-9-yl)-4-(5-methyl-3-phenyl-1,2-oxazole-4-carbonyl)piperazine]
effect on single channel open probability (Popen) ([1]; 50 μM, channels activated by PZQ or AG1 (10 μM)): decreased Popen | Emax ([2]; HEK293, S3 Table, titration, read-out: Sm.TRPMPZQ AG Averaged Max % Response): 11.6% | EC50 ([2]; S3 Table, 10-point titration in triplicate, unit inferred, read-out: Sm.TRPMPZQ AG Final EC50): > 12.4 µM | EC50 ([3]; S3 Table): > 12.4 µM | HEK AG Averaged Max % Response ([3]; S3 Table): 25.3604%

O=C(C1CCCCC1)N1CC(=O)N2CCc3ccccc3C2C1 (stereo not shown) [PZQ, praziquantel, reference compound]
mean slope single-channel conductance [1]: 76 ± 8 pS | Emax ([2]; HEK293, read-out: Sm.TRPMPZQ AG Averaged Max % Response, S2 Table, titration): 80.3% | Sm.TRPMPZQ AG Hill Slope ([2]; S2 Table, titration, listed as SR-01000003100-3): 1.753 | Sm.TRPMPZQ AG Averaged Max % Response [2, 4]: 90.5499% | Sm.TRPMPZQ AG Hill Slope [2, 4]: 1.657 | EC50 ([3]; S2 Table): > 12.4 µM | HEK AG Averaged Max % Response ([3]; S2 Table, listed as SR-01000003100-3): 2.271% | HEK AG Averaged Max % Response ([3]; S2 Table, listed as SR-01000003100-19): 17.5496% | change in basal fluorescence ([3]; ≤30 μM, untransfected HEK293 cells): failed to elicit any change in basal fluorescence
